{"source": "patent US11655450B2", "about": "“Method for inducing differentiation of stem cell into dopaminergic neural precursor cell” (S-BIOMEDICS, priority 2019, dated 2023)", "key": {"[1]": {"test_system": "FOXA2 and/or LMX1A", "test": "Immunocytochemistry of FOXA2 and/or LMX1A expression during differentiation into dopaminergic neural precursor cells", "assay_type": "cell-based, human", "experimental": "Cells were fixed for 10 min in a 4% paraformaldehyde solution.\nIn order to smoothly penetrate into the cytoplasm, […] incubated with 0.1% Trition X-100 (in PBS) for 15 min and then with 2% bovine serum albumin (BSA, in PBS) for 1 hour at room temperature.\nSubsequently, the primary antibodies (see Table 1, below) were allowed to bind to the cells at 4° C. Secondary antibodies suitable for the respective primary antibody species (see Table 1, below) were used to confirm the primary antibody-bound cells.\nFinally, cell nuclei were imaged. In this regard, the cells were incubated with 4′, […] (DAPI) in PBS for 10 min to stain the nuclei which were then imaged under a fluorescence microscope. Important markers were identified and analyzed.\nThe cells were differentiated into dopaminergic neural precursor cells in the same manner as the method of the present invention, with the exception of treating the cells with SAG and CHIR99021 at respective concentrations of 0.5 μM and 1.0 μM, or 1.0 μM and 1.5 μM, instead of 1.0 μM and 2.0 μM. With the expression of FOXA2 and/or LMX1A, this method was compared to the method of the present disclosure."}, "[2]": {"test_system": "stem cells", "test": "Cell adhesion test with ECM", "assay_type": "cell-based, human", "experimental": "With respect to CELLstart and various concentrations (2-7 μg/mL) of ECM (Laminin 521), stem cells were cultured using the same protocol as in the above Examples to conduct a cell adhesion test."}}, "data": [{"compound": "Cc1c[nH]c(-c2cnc(NCCNc3ccc(C#N)cn3)nc2-c2ccc(Cl)cc2Cl)n1", "note": "[CHIR99021, 6-[[2-[[4-(2,4-dichlorophenyl)-5-(5-methyl-1H-imidazol-2-yl)-2-pyrimidinyl]amino]ethyl]amino]-3-pyridinecarbonitrile]", "values": [{"measurement": "expression of LMX1A and En-1", "setting": "[1]; markers for dopaminergic neural precursor cells, as illustrated in the Example section", "result": "upregulate the expression of LMX1A and En-1"}]}, {"compound": "CNC1CCC(N(Cc2cccc(-c3ccncc3)c2)C(=O)c2sc3ccccc3c2Cl)CC1.Cl.Cl.O.O", "note": "(centres unmarked) [SAG]", "values": [{"measurement": "expression of FOXA2", "setting": "[1]; marker for dopaminergic neural precursor cells, as explained in the Example section", "result": "upregulate the expression of FOXA2"}]}, {"compound": "Laminin-521: ECM (Laminin 521) used to coat culture dishes", "values": [{"measurement": "cell adhesion", "setting": "[2]; 2 μg/mL and 3 μg/mL", "result": "too poor adhesion to conduct the test"}, {"measurement": "cell adhesion", "setting": "[2]; 4 μg/mL and 5 μg/mL", "result": "relatively high adhesion"}, {"measurement": "cell state on ECM", "setting": "[2]; 6 μg/mL and 7 μg/mL", "result": "spontaneous differentiation at high frequency"}]}]}
